From article PMC6972920, “Structure-based development of caged dopamine D2/D3 receptor antagonists” (Scientific Reports, 2020)
Entries after “also recorded” stand apart in the source; their conditions may differ.

Assays:
[1] = target: human dopamine receptor subtype D2L (Homo sapiens, UniProt P14416); experiment: Radioligand displacement, [3H]spiperone, CHO cell membranes; assay type: binding; settings: [3H]spiperone; mean ± SEM of 4-9 experiments; compounds 1, 2, 3: ± SD of two experiments; read-out: Ki value D2L
Chain of human dopamine receptor subtype D2L (P14416 whole entry): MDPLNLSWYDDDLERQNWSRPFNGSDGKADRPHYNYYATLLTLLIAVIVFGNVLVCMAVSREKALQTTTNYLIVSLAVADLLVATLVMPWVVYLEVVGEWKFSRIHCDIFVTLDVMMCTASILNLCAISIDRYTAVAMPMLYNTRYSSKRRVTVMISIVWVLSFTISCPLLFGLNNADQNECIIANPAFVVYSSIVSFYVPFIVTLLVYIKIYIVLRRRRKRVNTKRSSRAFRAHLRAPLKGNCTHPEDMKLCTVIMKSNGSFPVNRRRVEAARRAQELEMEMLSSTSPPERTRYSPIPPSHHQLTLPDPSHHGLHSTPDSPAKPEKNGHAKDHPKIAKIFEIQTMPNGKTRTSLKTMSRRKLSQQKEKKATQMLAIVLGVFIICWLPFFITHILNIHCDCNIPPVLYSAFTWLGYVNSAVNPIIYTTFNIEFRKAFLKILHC

[2] = target: human dopamine receptor subtype D2S (Homo sapiens, UniProt P14416); experiment: as above; assay type: binding; settings: [3H]spiperone; mean ± SEM of 4-9 experiments; compounds 1, 2, 3: ± SD of two experiments; read-out: Ki value D2S
Chain of human dopamine receptor subtype D2S (P14416 1-414 isoform P14416-2): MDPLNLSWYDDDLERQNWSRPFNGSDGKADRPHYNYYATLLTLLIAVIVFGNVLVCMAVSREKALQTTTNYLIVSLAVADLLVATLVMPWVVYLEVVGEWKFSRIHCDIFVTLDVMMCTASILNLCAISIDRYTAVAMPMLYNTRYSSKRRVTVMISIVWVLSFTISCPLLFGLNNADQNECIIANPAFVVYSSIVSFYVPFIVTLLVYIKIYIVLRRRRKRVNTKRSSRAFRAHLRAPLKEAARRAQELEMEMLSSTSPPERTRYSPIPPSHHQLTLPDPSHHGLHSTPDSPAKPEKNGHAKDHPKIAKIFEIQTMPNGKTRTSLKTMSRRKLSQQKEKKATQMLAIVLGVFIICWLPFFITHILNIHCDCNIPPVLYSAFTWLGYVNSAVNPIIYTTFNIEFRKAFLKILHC

[3] = target: human dopamine receptor subtype D3 (Homo sapiens, UniProt P35462); experiment: as above; assay type: binding; settings: mean ± SEM of 4-9 experiments, compounds 1, 2, 3: ± SD of two experiments
Chain of human dopamine receptor subtype D3 (P35462 whole entry): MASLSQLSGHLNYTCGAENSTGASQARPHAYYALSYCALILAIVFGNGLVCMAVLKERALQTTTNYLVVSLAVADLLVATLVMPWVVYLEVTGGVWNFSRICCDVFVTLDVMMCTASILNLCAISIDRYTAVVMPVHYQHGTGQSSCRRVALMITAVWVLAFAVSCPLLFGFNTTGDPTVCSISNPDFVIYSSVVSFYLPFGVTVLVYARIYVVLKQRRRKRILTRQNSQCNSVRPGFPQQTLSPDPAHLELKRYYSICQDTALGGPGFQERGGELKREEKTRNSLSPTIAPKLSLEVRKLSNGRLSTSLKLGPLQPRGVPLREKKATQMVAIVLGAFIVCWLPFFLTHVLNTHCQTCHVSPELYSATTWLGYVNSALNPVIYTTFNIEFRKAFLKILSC

[4] = target: T1, human dopamine receptor subtype D4.4 (Homo sapiens, UniProt P21917); experiment: as above; assay type: binding; settings: [3H]spiperone; mean ± SEM of 4-9 experiments; compounds 1, 2, 3: ± SD of two experiments; read-out: Ki value D4.4
T1 sequence (P21917 1-419): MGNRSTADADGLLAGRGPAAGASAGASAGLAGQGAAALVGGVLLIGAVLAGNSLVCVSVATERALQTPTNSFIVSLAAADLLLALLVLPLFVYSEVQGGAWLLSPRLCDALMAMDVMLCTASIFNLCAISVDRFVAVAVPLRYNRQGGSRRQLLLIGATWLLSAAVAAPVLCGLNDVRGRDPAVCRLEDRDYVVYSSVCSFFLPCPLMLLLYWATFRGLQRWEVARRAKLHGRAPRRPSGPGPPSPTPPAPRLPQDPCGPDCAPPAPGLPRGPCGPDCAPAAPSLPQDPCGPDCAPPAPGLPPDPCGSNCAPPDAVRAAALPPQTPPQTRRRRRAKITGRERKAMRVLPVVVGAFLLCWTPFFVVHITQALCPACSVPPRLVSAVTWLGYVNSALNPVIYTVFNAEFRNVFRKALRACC

[5] = target: T2, dopamine D2S receptor co-expressed with hybrid Gαqi in HEK293T cells (Homo sapiens, UniProt P14416); experiment: IP accumulation assay (IP-One HTRF), agonist / inverse agonist effect; assay type: cell-based; settings: for functional properties in IP accumulation assay (in words): D2S receptors; for Emax: HEK-293T, relative to full effect of quinpirole (100%) and buffer (0%); for EC50: IP accumulation, ± SEM, 3-8 experiments, negative Emax = inverse agonist effect
T2 construct: expressed in transfected cells; host or cells: HEK-293T cells, transient co-transfection
T2 sequence (P14416 1-414 isoform P14416-2): as the sequence (P14416 1-414 isoform P14416-2) above

[6] = target: T2, dopamine D2S receptor co-expressed with hybrid Gαqi in HEK293T cells; experiment: IP accumulation assay (IP-One HTRF), inhibition of 10 nM quinpirole; assay type: cell-based; settings: for Emax: HEK-293T, in presence of 10 nM quinpirole, relative to quinpirole (100%) and buffer (0%), read-out: inhibitory effect Emax; for IC50: blocking of the agonist effect of 10 nM quinpirole, ± SEM, 4-6 experiments, read-out: inhibitory effect IC50
[7] = target: T3, D2S receptor (HEK293T cells co-transfected with D2S and Gαqi) (Homo sapiens, UniProt P14416); experiment: Illumination experiment: test compound solution irradiated at 365 nm before addition to cells, quinpirole stimulated IP accumulation; assay type: cell-based; settings: for irradiation time after which no quinpirole activity could be observed / agonist effect of quinpirole remaining after 2 seconds of irradiation: 50 nM caged compound, 365 nm; for irradiation time for complete release (uncaging) of dechloroeticlopride: 50 nM, irradiation at 365 nm, solution irradiated before addition to cells
T3 construct: expressed in transfected cells; host or cells: HEK-293T cells, transient co-transfection
T3 sequence (P14416 1-414 isoform P14416-2): as above
From the text: (§1) […]. Mean curves ± SEM of 4–9 individual curves each done in triplicates. […]. Mean curves from 3–4 experiments each done in duplicate. […]. While 4 (MG307) (green bars) is completely released after 10 sec, the uncaging of 5 (red bars) needs 20 sec. […]. Mean bars ± SEM derived from 3–11 individual experiments each done in quintuplicates. Irradiation with a solution of test compound before addition to the cellular test system. […]. Means ± SEM from 6 experiments in quintuplicates.
(§2) […]. Actually, we observed an onset of a strong inverse agonist effect on quinpirole-induced IP accumulation after irradiation of the nitrobenzyl-caged compound 4 (MG307). […] […]. […] To complement uncaging of the test compounds by irradiation of the test compounds before addition to receptor by a biologically more significant experiment, we investigated whether uncaging can also be accomplished directly in the cellular system. […] In fact, quinpirole-promoted IP accumulation was substantially attenuated after irradiation for 10 or 20 sec. […] […]. […] […].
HEK293T cells were transiently co-transfected with D2S and Gαqi. Solutions of the test compounds were irradiated at λ = 365 nm using the same LED as for the photochemistry experiments (see above) for 2, 5, 10 or 20 sec and the test compound was added to the cell system immediately after illumination. […]. Accumulation of IP was determined as described above. […]. Basal activity (buffer) was set as 0%. As a control, quinpirole was irradiated for 20 sec without observing any difference to the effect of the untreated analog. […]. All irradiation experiments were carried out in the dark or under dim light.

[8] = target: T3, D2S receptor (HEK293T cells co-transfected with D2S and Gαqi); experiment: Photoactivation by direct irradiation of the cellular test system, quinpirole mediated IP accumulation; assay type: cell-based; settings: buffer and compound irradiated at 365 nm for 10 or 20 sec
From the text: as §1, §2
HEK293T cells were transiently co-transfected with D2S and Gαqi. Solutions of the test compounds were irradiated at λ = 365 nm using the same LED as for the photochemistry experiments (see above) for 2, 5, 10 or 20 sec and the test compound was added to the cell system immediately after illumination. […]. Accumulation of IP was determined as described above. […]. […]

[9] = Compound stability and photolysis in aqueous buffer monitored by HPLC; assay type: physicochemical; settings: for behaviour upon illumination with λp = 365 nm (in words): aqueous buffer, LED 365 nm, HPLC; for stability in the absence of light (in words): dark, storage and solution, HPLC/LCMS; for remaining fraction of the initial concentration: incubation in aqueous buffer at ambient light for 1 h
Procedure: All measurements were performed in aqueous buffer solution. Compound stability and photolysis was monitored by HPLC. […] Excitation of NB- and DMNB-type cages to trigger photolysis is usually performed with light of 300–400 nm. This absorption profile may limit the wavelength range for cage photolysis, as simultaneous excitation of the core pharmacophore may trigger photolytic degradation of the desired product. We performed photolysis experiments using a near UV light-emitting diode (LED) light source with a peak wavelength of λp = 365 nm and a spectrum half width of Δλ = 9 nm.
No unspecific degradation of the pharmacophore was observed, resulting in constant concentration of the desired product. […] The exposure to ambient light for longer time led to partial photolytic degradation. After incubation in aqueous buffer at ambient light for 1 h, we detected remaining 51% and 62% of the initial concentrations of 4 (MG307) and 5, respectively.
For compound characterization, UV/Vis absorption spectra of samples with c = 0.1 mM in methanol were measured on an Analytik Jena Specord 200 Plus spectrometer (λ = 210–400 nm). Irradiation experiments to trigger photolysis were performed in open HPLC glass vials using a LED (λ = 365 nm, 4.5 V, 0.7 A) to irradiate the samples from top. An aqueous buffer solution served as solvent (50 mM Tris, 1 mM EDTA, 50 mM MgCl2, 100 µg/ml bacitracin, 5 µg/ml soybean trypsin inhibitor), with initial sample concentrations of […] and sample volumes of 100 µl. Photolysis was monitored by HPLC as specified before (eluent system 1). […] Unless specified differently, all experiments were performed in triplicate.

SMILES	Ki [1] [µM]	Ki [2] [µM]	Ki [3] [µM]	Ki [4] [µM]	functional properties in IP accumulation assay (in words) [5]	Emax [5] [%]	EC50 [5] [µM]	Emax [6] [%]	IC50 [6] [µM]	irradiation time after which no quinpirole activity could be observed ([7]; 10 nM quinpirole) [s]	agonist effect of quinpirole remaining after 2 seconds of irradiation ([7]; 10 nM quinpirole)	irradiation time for complete release (uncaging) of dechloroeticlopride [7] [s]	remaining D2S promoted signalling (IP accumulation) after irradiation in the cellular system [8]	behaviour upon illumination with λp = 365 nm (in words) [9]	behaviour upon illumination with λp = 365 nm (in words) ([9]; listed as 4 (MG307))	stability in the absence of light (in words) [9]	remaining fraction of the initial concentration [9] [%]	effect of irradiation at 365 nm for 20 sec on the compound's effect on IP accumulation (in words) ([7]; controls, 10 nM quinpirole)
CCc1ccc(OC)c(C(=O)NC[C@@H]2CCCN2CC)c1OCc1ccccc1[N+](=O)[O-] [compound 4, (S)-3-Ethyl-N-[(1-ethylpyrrolidin-2-yl)methyl]-6-methoxy-2-[(2-nitrobenzyl)oxy]benzamide]	0.21 ± 0.018	0.22 ± 0.066	0.2 ± 0.062	2.8 ± 0.18	inverse agonist properties were observed as well, but potency was low	-21 ± 3.3	0.22 ± 0.065	-29 ± 5.6	0.85 ± 0.21	10	less than 30%	10	< 5%	fast conversion to dechloroeticlopride within a few seconds	clean photolysis	stable under storage conditions and in solution for at least two days	51	
CCc1ccc(OC)c(C(=O)NC[C@@H]2CCCN2CC)c1OCc1cc(OC)c(OC)cc1[N+](=O)[O-] [compound 5]	0.35 ± 0.047	0.16 ± 0.035	0.14 ± 0.033	25 ± 3.3	inverse agonist properties were observed as well, but potency was low	-21 ± 5.5	0.28 ± 0.12	-28 ± 4.6	0.99 ± 0.23	20	less than 30%	20	about 35%	fast conversion to dechloroeticlopride within a few seconds; also recorded: clean photolysis		stable under storage conditions and in solution for at least two days	62	
CCc1ccc(OC)c(C(=O)NC[C@@H]2CCCN2CC)c1O [dechloroeticlopride, (S)-3-Ethyl-N-[(1-ethylpyrrolidin-2-yl)methyl]-2-hydroxy-6-methoxybenzamide, reference compound]	0.0024 ± 0.00044	0.0012 ± 0.00021			specific antagonist / inverse agonist	-17 ± 2.5	0.0052 ± 0.0008	-20 ± 2.1	0.0096					more photostable; also recorded: no significant decomposition				does not affect
